For one test, the target named is human orexin-1 receptor (Homo sapiens (Human), UniProt O43613). In words: FLIPR Ca2+ Flux Assay, hOX1R. Conditions: CHO cells expressing human orexin-1 receptor; agonist 70 pM Ala-6,12 human orexin-A. Type of test: cell-based. As to the method: (§1) The utility of the compounds in accordance with the present invention as orexin receptor OX1R and/or OX2R antagonists may be readily determined without undue experimentation by methodology well known in the art, including the “FLIPR Ca^2+ Flux Assay” (Okumura et al., Biochem. Biophys. Res. Comm. 280:976-981, 2001). In a typical experiment the OX1 and OX2 receptor antagonistic activity of the compounds of the present invention was determined in accordance with the following experimental method. For intracellular calcium measurements, Chinese hamster ovary (CHO) cells expressing the rat or human orexin-1 receptor or the human orexin-2 receptor, are grown in Iscove's modified DMEM containing 2 mM L-glutamine, […], 1% hypoxanthine-thymidine supplement, 100 U/ml penicillin, 100 μg/ml streptomycin and 10% heat-inactivated fetal calf serum (FCS). The cells are seeded at 20,000 cells/well into Becton-Dickinson black 384-well clear bottom sterile plates coated with poly-D-lysine. All reagents were from GIBCO-Invitrogen Corp. The seeded plates are incubated overnight at 37° C. and 5% CO2. Ala-6,12 human orexin-A as the agonist is prepared as a 1 mM stock solution in 1% bovine serum albumin (BSA) and diluted in assay buffer (HBSS containing 20 mM HEPES, 0.1% BSA and 2.5 mM probenecid, pH7.4) for use in the assay at a final concentration of 70 pM. Test compounds are prepared as 10 mM stock solution in DMSO, then diluted in 384-well plates, first in DMSO, then assay buffer. On the day of the assay, cells are washed 3 times with 100 μl assay buffer and then incubated for 60 min (37° C., 5% CO2) in 60 μl assay buffer containing 1 μM Fluo-4AM ester, 0.02% pluronic acid, and 1% BSA. The dye loading solution is then aspirated and cells are washed 3 times with 100 μl assay buffer. 30 μl of that same buffer is left in each well. Within the Fluorescent Imaging Plate Reader (FLIPR, Molecular Devices), test compounds are added to the plate in a volume of 25 μl, incubated for 5 min and finally 25 μl of agonist is added. Fluorescence is measured for each well at 1 second intervals for 5 minutes and the height of each fluorescence peak is compared to the height of the fluorescence peak induced by 70 pM Ala-6,12 orexin-A with buffer in place of antagonist. For each antagonist, IC50 value (the concentration of compound needed to inhibit 50% of the agonist response) is determined. Alternatively, compound potency can be assessed by a radioligand binding assay (described in Bergman et. al. Bioorg. Med. Chem. Lett. 2008, 18, 1425-1430) in which the inhibition constant (Ki) is determined in membranes prepared from CHO cells expressing either the OX1 or OX2 receptor. The intrinsic orexin receptor antagonist activity of a compound which may be used in the present invention may be determined by these assays.
Sequence of human orexin-1 receptor (O43613 whole entry): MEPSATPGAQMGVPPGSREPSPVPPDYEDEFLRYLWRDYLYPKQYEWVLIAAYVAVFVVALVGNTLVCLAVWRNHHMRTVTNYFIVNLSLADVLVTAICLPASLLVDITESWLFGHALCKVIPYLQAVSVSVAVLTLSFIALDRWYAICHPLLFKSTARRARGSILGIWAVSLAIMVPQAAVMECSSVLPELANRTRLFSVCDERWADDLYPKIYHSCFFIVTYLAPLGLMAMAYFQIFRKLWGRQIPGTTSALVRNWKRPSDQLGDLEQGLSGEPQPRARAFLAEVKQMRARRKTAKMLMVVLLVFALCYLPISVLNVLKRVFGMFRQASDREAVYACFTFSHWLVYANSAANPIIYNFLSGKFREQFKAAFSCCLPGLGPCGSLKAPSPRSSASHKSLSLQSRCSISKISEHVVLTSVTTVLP

The target in a further test is human orexin-2 receptor (Homo sapiens (Human), UniProt O43614). In words: FLIPR Ca2+ Flux Assay, hOX2R. The test is classed as cell-based. The conditions noted are these: CHO cells expressing human orexin-2 receptor; agonist 70 pM Ala-6,12 human orexin-A. As to the method:
as §1
(Calcium assays in cells follow changes in intracellular calcium, usually with a dye or a luminescent sensor.)

Each structure is given as a SMILES string. pIC50: −log10 of the molar value.

Sequence of human orexin-2 receptor (O43614 whole entry): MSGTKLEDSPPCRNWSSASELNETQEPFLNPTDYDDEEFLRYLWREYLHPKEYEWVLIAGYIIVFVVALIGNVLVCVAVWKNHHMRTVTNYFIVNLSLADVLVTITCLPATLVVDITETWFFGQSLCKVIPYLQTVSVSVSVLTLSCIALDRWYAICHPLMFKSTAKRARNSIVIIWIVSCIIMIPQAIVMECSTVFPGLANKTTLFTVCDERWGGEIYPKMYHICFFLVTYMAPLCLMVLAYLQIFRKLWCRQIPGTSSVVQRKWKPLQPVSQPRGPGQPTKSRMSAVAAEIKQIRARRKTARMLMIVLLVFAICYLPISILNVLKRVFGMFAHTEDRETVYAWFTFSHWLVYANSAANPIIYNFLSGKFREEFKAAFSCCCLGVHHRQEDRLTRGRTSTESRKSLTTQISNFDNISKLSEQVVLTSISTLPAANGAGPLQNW

On to `CCN(CCc1nc(C(C)(C)O)c(C)o1)C(=O)c1cccnc1OCC(F)(F)F` [Example 13, N-Ethyl-N-{2-[4-(1-hydroxy-1-methylethyl)-5-methyl-1,3-oxazol-2-yl]ethyl}-2-(2,2,2-trifluoroethoxy)pyridine-3-carboxamide], for which the pIC50 at human orexin-1 receptor was less than 5.00; at human orexin-2 receptor, 7.01.

As to `CCN(CCc1nc(C(C)(C)O)c(C)o1)C(=O)c1ccccc1CC(F)(F)F` [Example 14, N-Ethyl-N-{2-[4-(1-hydroxy-1-methylethyl)-5-methyl-1,3-oxazol-2-yl]ethyl}-2-(2,2,2-trifluoroethyl)benzamide], the figures for the negative logarithm of the IC50 (pIC50) on human orexin-1 receptor and at human orexin-2 receptor were less than 5.00 and 6.68, respectively.

As to `Cc1oc(CCN(CC2CC2)C(=O)c2ccccc2-n2nccn2)nc1C(C)(C)O` [Example 23, N-(Cyclopropylmethyl)-N-{2-[4-(1-hydroxy-1-methylethyl)-5-methyl-1,3-oxazol-2-yl]ethyl}-2-(2H-1,2,3-triazol-2-yl)benzamide], the pIC50 on human orexin-1 receptor is 5.55; at human orexin-2 receptor, 7.68.

With `CCN(CCc1nc(C(C)(C)O)c(C)o1)C(=O)c1ccccc1C1(C#N)CC1` [Example 10b, 2-(1-cyanocyclopropyl)-N-ethyl-N-{2-[4-(1-hydroxy-1-methylethyl)-5-methyl-1,3-oxazol-2-yl]ethyl}benzamide], the figures for the negative-log IC50 (pIC50) on human orexin-1 receptor and on human orexin-2 receptor were 5.75 and 7.59, respectively.

With `CCN(CCc1nc(C(C)(C)O)c(C)o1)C(=O)c1ccccc1C(=O)OC` [Example 16, Methyl 2-(ethyl{2-[4-(1-hydroxy-1-methylethyl)-5-methyl-1,3-oxazol-2-yl]ethyl}carbamoyl)benzoate], the pIC50 is less than 5.00 at human orexin-1 receptor and 6.20 at human orexin-2 receptor.

Turning to `CCN(CCc1nc(C(C)(C)O)c(C)o1)C(=O)c1ccccc1-n1nccn1` [Example 11, N-Ethyl-N-{2-[4-(1-hydroxy-1-methylethyl)-5-methyl-1,3-oxazol-2-yl]ethyl}-2-(2H-1,2,3-triazol-2-yl)benzamide], the results for the negative-log IC50 (pIC50) on human orexin-1 receptor and at human orexin-2 receptor were 5.59 and 7.57, respectively.

`C=CCN(CCc1nc(C(C)(C)O)c(C)o1)C(=O)c1ccccc1-n1nccn1` [Example 21, N-{2-[4-(1-Hydroxy-1-methylethyl)-5-methyl-1,3-oxazol-2-yl]ethyl}-N-prop-2-en-1-yl-2-(2H-1,2,3-triazol-2-yl)benzamide]: the figures for the pIC50 on human orexin-1 receptor and at human orexin-2 receptor were 6.00 and 7.72, respectively.

With `CCN(CCc1nc(C(C)(C)O)c(C)o1)C(=O)c1ccccc1-n1ncnn1` [Example 9, N-ethyl-N-{2-[4-(1-hydroxy-1-methylethyl)-5-methyl-1,3-oxazol-2-yl]ethyl}-2-(2H-tetrazol-2-yl)benzamide], the pIC50 on human orexin-1 receptor was less than 5.00; at human orexin-2 receptor it was 6.31.

`Cc1oc(CCN(CC(F)F)C(=O)c2ccccc2-n2nccn2)nc1C(C)(C)O` [Example 24, N-(2,2-Difluoroethyl)-N-{2-[4-(1-hydroxy-1-methylethyl)-5-methyl-1,3-oxazol-2-yl]ethyl}-2-(2H-1,2,3-triazol-2-yl)benzamide]: the values for the negative-log IC50 (pIC50) at human orexin-1 receptor and on human orexin-2 receptor were less than 5.00 and 7.17, respectively.

In the case of `CCCN(CCc1nc(C(C)(C)O)c(C)o1)C(=O)c1ccccc1-n1nccn1` [Example 22, N-{2-[4-(1-Hydroxy-1-methylethyl)-5-methyl-1,3-oxazol-2-yl]ethyl}-N-propyl-2-(2H-1,2,3-triazol-2-yl)benzamide], the negative-log IC50 (pIC50) at human orexin-1 receptor is 5.62; at human orexin-2 receptor, 7.72.

Turning to `CCN(CCc1nc(C(C)(C)O)c(C)o1)C(=O)c1sccc1-n1nccn1` [Example 10d, N-ethyl-N-{2-[4-(1-hydroxy-1-methylethyl)-5-methyl-1,3-oxazol-2-yl]ethyl}-3-(2H-1,2,3-triazol-2-yl)thiophene-2-carboxamide], the pIC50 is less than 5.00 on human orexin-1 receptor and 6.36 on human orexin-2 receptor.

For the compound `Cc1oc(CCN(CCO)C(=O)c2ccccc2-n2nccn2)nc1C(C)(C)O` [Example 28, N-(2-hydroxyethyl)-N-(2-(4-(2-hydroxypropan-2-yl)-5-methyloxazol-2-yl)ethyl)-2-(2H-1,2,3-triazol-2-yl)benzamide], the values for the negative logarithm of the IC50 (pIC50) on human orexin-1 receptor and on human orexin-2 receptor were less than 5.00 and 7.01, respectively.

Take `COCCCN(CCc1nc(C(C)(C)O)c(C)o1)C(=O)c1ccccc1-n1nccn1` [Example 33, N-(2-(4-(2-Hydroxypropan-2-yl)-5-methyloxazol-2-yl)ethyl)-N-(3-methoxypropyl)-2-(2H-1,2,3-triazol-2-yl)benzamide]: the pIC50 at human orexin-1 receptor is less than 5.00; on human orexin-2 receptor, 6.92.

The pIC50 is the IC50 on a negative log10 scale, so that one unit is a factor of ten.
